Reference: US6500950B1, “Benzylidenepyrazolones, their preparation and use” (BASF Aktiengesellschaft, priority 1997, dated 2002)

Tests used:
Format in all cases: in vivo
Zea mays = assay: Post-emergence greenhouse experiment, damage to useful plant; conditions: post-emergence rate 0.125 or 0.0≅kg/ha of a.s., scale 0 to 100
Description: (§1) The seeds of the test plants were sown separately for each species. For the post-emergence treatment, the test plants were first grown to a plant height of 3 to 15 cm, depending on the plant habit, and only then treated with the active compounds which had been suspended or emulsified in water. The test plants for this purpose were either sown directly and grown in the same containers, or they were first grown separately as seedlings and transplanted into the test containers a few days prior to treatment. The rate of application for the post-emergence treatment was 0.125 or 0.0≅kg/ha of a.s. Depending on the species, the plants were kept at 10-25° C. or 20-35° C. The test period extended over 2 to 4 weeks. During this time, the plants were tended, and their response to the individual treatments was evaluated. Evaluation was carried out using a scale from 0 to 100. 100 means no emergence of the plants, or complete destruction of at least the aerial parts, and 0 means no damage, or normal course of growth. The plants used in the greenhouse experiments were from the following species: [table]

Amaranthus retroflexus = assay: Post-emergence greenhouse experiment, herbicidal activity
Description: as §1, with “The rate of application for the post-emergence treatment was 0.125 or 0.0≅kg/ha of a.s.” left out, “growth.” for “growth. The plants used in the greenhouse experiments were from the following species: [table]”

Solanum nigrum = assay: as above
Description: as §1, with “The rate of application for the post-emergence treatment was 0.125 or 0.0≅kg/ha of a.s.” left out, “growth.” for “growth. The plants used in the greenhouse experiments were from the following species: [table]”

Polygonum persicaria = assay: as above; conditions: post-emergence rate 0.125 or 0.0≅kg/ha of a.s., scale 0 to 100
Description: as §1

Chenopodium album = assay: as above; conditions: post-emergence rate 0.125 or 0.0≅kg/ha of a.s., scale 0 to 100
Description: as §1

Setaria faberii = assay: as above; conditions: for Test plants [damage in %] Setaria faberii: post-emergence
Description: as §1, with “The rate of application for the post-emergence treatment was 0.125 or 0.0≅kg/ha of a.s.” left out

Echinochloa crus-galli = assay: as above; conditions: for Test plants [damage in %] Echinochloa crus-galli: post-emergence
Description: as §1, with “The rate of application for the post-emergence treatment was 0.125 or 0.0≅kg/ha of a.s.” left out

[1] = application rate 0.25 g/ha of a.s.
[2] = application rate 0.5 g/ha of a.s.
[3] = greenhouse, post-emergence rate 0.125 or 0.0≅kg/ha of a.s., scale 0 to 100

What does the source list for `CCN1N=CC(=C(Cl)c2ccc(S(C)(=O)=O)c(C3=NOCC3)c2Cl)C1=O` [I.119, cis-4-[Chloro(2-chloro-3-(4,5-dihydroisoxazol-3-yl)-4-methylsulfonylphenyl)methylene]-2-ethyl-2,4-dihydropyrazol-3-one]?
damage of the useful plant maize (Zea mays): 0%; Test plants [damage in %] Amaranthus retroflexus (Amaranthus retroflexus; [1]): 100%; Test plants [damage in %] Amaranthus retroflexus (Amaranthus retroflexus; [2]): 100%; Test plants [damage in %] Solanum nigrum (Solanum nigrum; [1]): 100%; Test plants [damage in %] Solanum nigrum (Solanum nigrum; [2]): 100%; damage of the plants (Polygonum persicaria): > 98%; damage of the plants (Chenopodium album): > 98%; damage of the plants (Setaria faberii; [3]): > 98%; Test plants [damage in %] Setaria faberii (Setaria faberii; [1]): 100%; Test plants [damage in %] Setaria faberii (Setaria faberii; [2]): 100%; damage of the plants (Echinochloa crus-galli; [3]): > 98%; Test plants [damage in %] Echinochloa crus-galli (Echinochloa crus-galli; [1]): 100%; Test plants [damage in %] Echinochloa crus-galli (Echinochloa crus-galli; [2]): 100%
